Results: ChEMBL document CHEMBL1649380, “Prediction of drug intestinal absorption by new linear and non-linear QSPR” (Eur J Med Chem, 2011)

Test: Drug absorption in human assessed as human intestinal absorption rate
Format: ADME, tissue-based, Intestine

| Compound | log10(%HIA +10) |
| --- | --- |
| CCCCC(=O)N(Cc1ccc(-c2ccccc2-c2nnn[nH]2)cc1)[C@H](C(=O)O)C(C)C | 1.813 |
| CCOC(=O)[C@H](CCc1ccccc1)N[C@@H](C)C(=O)N1[C@H](C(=O)O)C[C@@H]2CCC[C@@H]21 | 1.845 |
| COc1ccccc1N1CCN(CCCNc2cc(=O)n(C)c(=O)n2C)CC1 | 1.945 |
| Cc1cccc(C)c1NC(=O)NCCCNC(C)C | 1.909 |
| CCN(CC)C(=S)SSC(=S)N(CC)CC | 2.029 |
| CC(=O)NCCCS(=O)(=O)O [ACAMPROSATE] | 1.322 |
| C[C@H]1O[C@H](O[C@H]2[C@H](O)[C@@H](O)[C@@H](O[C@H]3[C@H](O)[C@@H](O)C(O)O[C@@H]3CO)O[C@@H]2CO)[C@H](O)[C@@H](O)[C@@H]1N[C@H]1C=C(CO)[C@@H](O)[C@H](O)[C@H]1O (stereo not given in full) [ACARBOSE] | 1.079 |
| CCCC(=O)Nc1ccc(OCC(O)CNC(C)C)c(C(C)=O)c1 (stereo not given) [ACEBUTOLOL] | 1.999 |
| CC(=O)Nc1ccc(O)cc1 [ACETAMINOPHEN] | 1.978 |
| Nc1ncnc2c1ncn2CCOCP(=O)(O)O [ADEFOVIR] | 1.342 |
| C=CCNc1nc(NCC=C)nc(N2CCN(C(c3ccc(F)cc3)c3ccc(F)cc3)CC2)n1 [ALMITRINE] | 2 |
| CN(C)CCc1c[nH]c2ccc(CS(=O)(=O)N3CCCC3)cc12 [ALMOTRIPTAN] | 1.929 |
| C=CCc1ccccc1OCC(O)CNC(C)C (stereo not given) [ALPRENOLOL] | 2.016 |
| N=C(N)NC(=O)c1nc(Cl)c(N)nc1N [AMILORIDE] | 1.778 |
| Cc1c(N(C)C)c(=O)n(-c2ccccc2)n1C [AMINOPYRINE] | 2.041 |
| CC1(C)S[C@@H]2[C@H](NC(=O)[C@H](N)c3ccc(O)cc3)C(=O)N2[C@H]1C(=O)O [AMOXICILLIN] | 2.016 |
| C[C@@H]1[C@H](O)[C@@H](C)/C=C/C=C/C=C/C=C/C=C/C=C/C=C/[C@H](O[C@@H]2O[C@H](C)[C@@H](O)[C@H](N)[C@@H]2O)C[C@@H]2O[C@](O)(C[C@@H](O)C[C@@H](O)[C@H](O)CC[C@@H](O)C[C@@H](O)CC(=O)O[C@H]1C)C[C@H](O)[C@H]2C(=O)O [AMPHOTERICIN B] | 1.176 |
| N#C[C@H](O[C@@H]1O[C@H](CO[C@@H]2O[C@H](CO)[C@@H](O)[C@H](O)[C@H]2O)[C@@H](O)[C@H](O)[C@H]1O)c1ccccc1 [AMYGDALIN] | 1.176 |
| O=C1CN2Cc3c(ccc(Cl)c3Cl)N=C2N1 [ANAGRELIDE] | 1.903 |
| Cc1cc(=O)n(-c2ccccc2)n1C [ANTIPYRINE] | 2.041 |
| NCC[C@H](O)C(=O)N[C@@H]1C[C@H](N)[C@@H](O[C@H]2O[C@H](CN)CC[C@H]2N)[C@H](O)[C@H]1O[C@H]1O[C@H](CO)[C@@H](O)[C@H](N)[C@H]1O [ARBEKACIN] | 1 |
| CC(=O)Oc1ccccc1C(=O)O [ASPIRIN] | 2.041 |
| CC(C)NCC(O)COc1ccc(CC(N)=O)cc1 (stereo not given) [ATENOLOL] | 1.785 |
| CN1[C@@H]2CC[C@H]1C[C@@H](OC(=O)C(CO)c1ccccc1)C2 (stereo not given in full) [ATROPINE] | 2.033 |
| CC[C@H]1OC(=O)[C@H](C)[C@@H](O[C@H]2C[C@@](C)(OC)[C@@H](O)[C@H](C)O2)[C@H](C)[C@@H](O[C@@H]2O[C@H](C)C[C@H](N(C)C)[C@H]2O)[C@](C)(O)C[C@@H](C)CN(C)[C@H](C)[C@@H](O)[C@]1(C)O [AZITHROMYCIN] | 1.663 |

| Compound | log10(%HIA +10) |
| --- | --- |
| CC1(C)S[C@@H]2[C@H](NC(=O)[C@H](NC(=O)N3CCNC3=O)c3ccccc3)C(=O)N2[C@H]1C(=O)O [AZLOCILLIN] | 1 |
| C[C@H]1[C@H](NC(=O)/C(=N\OC(C)(C)C(=O)O)c2csc(N)n2)C(=O)N1S(=O)(=O)O [AZTREONAM] | 1.041 |
| CCOC(=O)[C@H](CCc1ccccc1)N[C@H]1CCc2ccccc2N(CC(=O)O)C1=O [BENAZEPRIL] | 1.672 |
| NC(CO)C(=O)NNCc1ccc(O)c(O)c1O (stereo not given) [BENSERAZIDE] | 1.903 |
| CCc1oc2ccccc2c1C(=O)c1cc(Br)c(O)c(Br)c1 [BENZBROMARONE] | 1.919 |
| CN(C)CCCOc1nn(Cc2ccccc2)c2ccccc12 [BENZYDAMINE] | 1.987 |
| CC(C)NCC(O)COc1ccc(CCOCC2CC2)cc1 (stereo not given) [BETAXOLOL] | 2 |
| O=c1[nH]c(=O)n([C@H]2C[C@H](O)[C@@H](CO)O2)cc1/C=C/Br [BRIVUDINE] | 1.58 |
| CN(Cc1cc(Br)cc(Br)c1N)C1CCCCC1 [BROMHEXINE] | 1.903 |
| CC(C)C[C@H]1C(=O)N2CCC[C@H]2[C@]2(O)O[C@](NC(=O)[C@@H]3C=C4c5cccc6[nH]c(Br)c(c56)C[C@H]4N(C)C3)(C(C)C)C(=O)N12 [BROMOCRIPTINE] | 1.58 |
| CC(NC(C)(C)C)C(=O)c1cccc(Cl)c1 (stereo not given) [BUPROPION] | 1.987 |
| Cn1c(=O)c2c(ncn2C)n(C)c1=O [CAFFEINE] | 2.041 |
| C[C@H](CS)C(=O)N1CCC[C@H]1C(=O)O [CAPTOPRIL] | 1.892 |
| N[C@@H](C(=O)N[C@@H]1C(=O)N2C(C(=O)O)=C(CSc3c[nH]nn3)CS[C@H]12)c1ccc(O)cc1 [CEFATRIZINE] | 1.934 |
| CO/N=C(\C(=O)N[C@@H]1C(=O)N2C(C(=O)O)=C(CSc3nc(C)c(CC(=O)O)s3)CS[C@H]12)c1csc(N)n1 [CEFODIZIME] | 1 |
| COCC1=C(C(=O)OC(C)OC(=O)OC(C)C)N2C(=O)[C@@H](NC(=O)/C(=N\OC)c3csc(N)n3)[C@H]2SC1 (stereo not given in full) [CEFPODOXIME PROXETIL] | 1.778 |
| CO/N=C(\C(=O)N[C@@H]1C(=O)N2C(C(=O)O)=C(CSc3nc(=O)c(=O)[nH]n3C)CS[C@H]12)c1csc(N)n1 [CEFTRIAXONE] | 1.041 |
| CO/N=C(\C(=O)N[C@@H]1C(=O)N2C(C(=O)O)=C(COC(N)=O)CS[C@H]12)c1ccco1 [CEFUROXIME] | 1.176 |
| O=C(N[C@H](CO)[C@H](O)c1ccc([N+](=O)[O-])cc1)C(Cl)Cl [CHLORAMPHENICOL] | 2 |
| NS(=O)(=O)c1cc2c(cc1Cl)N=CNS2(=O)=O [CHLOROTHIAZIDE] | 1.528 |
| Nc1ccn(C[C@@H](CO)OCP(=O)(O)O)c(=O)n1.O.O [CIDOFOVIR] | 1.114 |
| CCOC(=O)C(C)(C)Oc1ccc(Cl)cc1 [CLOFIBRATE] | 1.987 |
| COc1ccc2c3c1O[C@H]1[C@@H](O)C=C[C@H]4[C@@H](C2)N(C)CC[C@@]341 [CODEINE] | 2.021 |
| O=C(O)c1cc(=O)c2c(OCC(O)COc3cccc4oc(C(=O)O)cc(=O)c34)cccc2o1 [CROMOLYN] | 1.021 |
| N[C@@H]1CON=C1O [CYCLOSERINE] | 1.919 |
